# From paper PMC6269892, “Ligand Binding Affinities of Arctigenin and Its Demethylated Metabolites to Estrogen Receptor Alpha” (Molecules, 2013)
# How the values were obtained:
# [1] = target: T1, estrogen receptor alpha (ERalpha) (Homo sapiens, UniProt P03372); experiment: Estrogen-R (α) competitor screening kit, ligand binding screen; conditions: for IC50: ER alpha competitor binding, non-linear regression, one site competition; for RBA (Relative binding affinity): IC50 of estradiol divided by IC50 of the tested compound, multiplied by 100, Estradiol = 100; for % Binding to ERα: mean ± S.E.M., n = 4
# T1 construct: purchased Wako Chemicals (Osaka, Japan)
# T1 sequence (P03372 1-595): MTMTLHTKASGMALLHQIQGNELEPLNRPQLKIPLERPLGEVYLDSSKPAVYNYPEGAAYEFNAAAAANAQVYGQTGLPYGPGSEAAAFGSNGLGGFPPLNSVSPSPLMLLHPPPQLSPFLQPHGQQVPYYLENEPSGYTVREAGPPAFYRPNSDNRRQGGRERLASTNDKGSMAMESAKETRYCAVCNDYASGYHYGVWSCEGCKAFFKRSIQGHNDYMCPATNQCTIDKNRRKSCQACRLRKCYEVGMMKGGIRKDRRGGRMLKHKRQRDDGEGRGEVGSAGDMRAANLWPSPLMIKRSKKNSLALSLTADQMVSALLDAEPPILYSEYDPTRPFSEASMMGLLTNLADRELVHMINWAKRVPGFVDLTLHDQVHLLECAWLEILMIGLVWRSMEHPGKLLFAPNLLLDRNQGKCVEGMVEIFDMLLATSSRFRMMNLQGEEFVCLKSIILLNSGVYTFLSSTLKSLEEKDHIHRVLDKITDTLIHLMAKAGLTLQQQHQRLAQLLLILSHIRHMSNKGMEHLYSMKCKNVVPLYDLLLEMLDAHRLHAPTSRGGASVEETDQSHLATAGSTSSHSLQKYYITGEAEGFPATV
# Description: An estrogen-R (α) competitor screening kit was purchased from Wako Chemicals (Osaka, Japan). The assay depends on the competition between the samples applied in different concentrations and the labeled estrogen mixture. The amount of the ligand that binds to the ERalpha coated on the microplate well is determined by the dynamic equilibrium among all the ligand concentrations in the mixture, the difference of their binding affinities to the receptor, and the incubation time. Therefore, the reduction in fluorescence intensities from the labeled estrogen retained is an indication of the affinity of the added compounds to the estrogen receptor. (−)-Arctigenin (8) and its metabolites were tested in 10^−5, 10^−4, 5 × 10^−4, and 5 × 10^−3 M concentrations. […] The results were calculated as percentages of the negative control.
# Each set of experiments was repeated at least three times. Values are expressed as mean ± S.E.M. One-way analysis of variance followed by Dunnett’s test was used for statistical analysis. The IC50 was calculated using a non-linear regression analysis (for one site competition).
# [2] = test system: MCF-7 human breast cancer cells; design: method as in earlier work; conditions: estradiol-mediated proliferative characteristics; ref 10 (Xie et al.); cited from earlier work
# [3] = compound at 5 × 10^−3 M, percentage of the negative control
# [4] = compound at 5 × 10^−4 M, percentage of the negative control
# [5] = compound at 10^−4 M, percentage of the negative control
# [6] = compound at 10^−5 M, percentage of the negative control (labeled estrogen mixture)
SMILES,IC50 [1] [µM],RBA (Relative binding affinity) [1],"% Binding to ERα [1, 3] [%]","% Binding to ERα [1, 4] [%]","% Binding to ERα [1, 5] [%]","% Binding to ERα [1, 6] [%]",proliferation of MCF-7 human breast cancer cells [2]
"COc1cc(C[C@H]2C(=O)OC[C@@H]2Cc2ccc(OC)c(OC)c2)ccc1O [Compound 8, (−)-arctigenin]",> 5000,,19.4 ± 1.5,−4.1 ± 3.5,−4.3 ± 0.8,−1.4 ± 0.8,
COc1ccc(C[C@H]2COC(=O)[C@@H]2Cc2ccc(O)c(OC)c2)cc1O [Compound 7],> 5000,,30.1 ± 1.7,−4.2 ± 0.8,1.2 ± 1.7,3.6 ± 0.6,
"COc1cc(C[C@H]2COC(=O)[C@@H]2Cc2ccc(O)c(OC)c2)ccc1O [Compound 5, (−)-matairesinol]",> 5000,,17.6 ± 1.1,0.1 ± 2.6,18.1 ± 9.0,0.4 ± 0.9,
"O=C1OC[C@H](Cc2ccc(O)c(O)c2)[C@H]1Cc1ccc(O)c(O)c1 [Compound 1, (−)-dihydroxyenterolactone]",1600,1.2 × 10^−3,65.3 ± 0.2,34.8 ± 1.3,13.7 ± 0.7,5.6 ± 3.3,

# Now from value to molecule, other results behind:
IC50 [1] [µM],RBA (Relative binding affinity) [1],"% Binding to ERα [1, 3] [%]","% Binding to ERα [1, 4] [%]","% Binding to ERα [1, 5] [%]","% Binding to ERα [1, 6] [%]",SMILES,proliferation of MCF-7 human breast cancer cells [2]
1900,1.0 × 10^−3,67.5 ± 0.2,25.8 ± 0.8,14.1 ± 1.3,2.2 ± 1.6,COc1cc(C[C@H]2COC(=O)[C@@H]2Cc2ccc(O)c(O)c2)ccc1O [Compound 3],
790,2.5 × 10^−3,67.7 ± 0.2,44.4 ± 0.9,13.5 ± 2.0,1.4 ± 1.2,"COc1cc(C[C@H]2C(=O)OC[C@@H]2Cc2ccc(O)c(O)c2)ccc1O [Compound 2, (2R,3R)-2-(4-hydroxy-3-methoxybenzyl)-3-(3,4-dihydroxybenzyl)-butyrolactone]",
2500,7.9 × 10^−4,63.2 ± 0.3,19.6 ± 2.3,−0.5 ± 0.7,1.0 ± 1.4,COc1ccc(C[C@H]2COC(=O)[C@@H]2Cc2ccc(O)c(O)c2)cc1O [Compound 4],
2500,7.9 × 10^−4,64.5 ± 0.2,16.6 ± 0.9,1.4 ± 2.4,−2.3 ± 0.9,COc1ccc(C[C@H]2COC(=O)[C@@H]2Cc2ccc(O)c(O)c2)cc1OC [Compound 6],stimulated the proliferation
